Test results published in US20110294766A1, “16 Alpha, 17 Alpha-Acetal Glucocorticosteroidal Derivatives and their Use” (AstraZeneca AB, priority 2008, published 2011).

target: T1, recombinant human GR (Homo sapiens, UniProt P04150); test: Human Glucocorticoid Receptor (GR) Assay (fluorescence polarization, Panvera/Invitrogen kit); conditions: GS Red tracer, 2 hours at room temperature, 100% control 10 μM Dexamethasone, read-out: Inhibition of GR binding, IC50
T1 construct: purchased Panvera/Invitrogen P2812 (kit P2893)
T1 sequence (P04150 1-777): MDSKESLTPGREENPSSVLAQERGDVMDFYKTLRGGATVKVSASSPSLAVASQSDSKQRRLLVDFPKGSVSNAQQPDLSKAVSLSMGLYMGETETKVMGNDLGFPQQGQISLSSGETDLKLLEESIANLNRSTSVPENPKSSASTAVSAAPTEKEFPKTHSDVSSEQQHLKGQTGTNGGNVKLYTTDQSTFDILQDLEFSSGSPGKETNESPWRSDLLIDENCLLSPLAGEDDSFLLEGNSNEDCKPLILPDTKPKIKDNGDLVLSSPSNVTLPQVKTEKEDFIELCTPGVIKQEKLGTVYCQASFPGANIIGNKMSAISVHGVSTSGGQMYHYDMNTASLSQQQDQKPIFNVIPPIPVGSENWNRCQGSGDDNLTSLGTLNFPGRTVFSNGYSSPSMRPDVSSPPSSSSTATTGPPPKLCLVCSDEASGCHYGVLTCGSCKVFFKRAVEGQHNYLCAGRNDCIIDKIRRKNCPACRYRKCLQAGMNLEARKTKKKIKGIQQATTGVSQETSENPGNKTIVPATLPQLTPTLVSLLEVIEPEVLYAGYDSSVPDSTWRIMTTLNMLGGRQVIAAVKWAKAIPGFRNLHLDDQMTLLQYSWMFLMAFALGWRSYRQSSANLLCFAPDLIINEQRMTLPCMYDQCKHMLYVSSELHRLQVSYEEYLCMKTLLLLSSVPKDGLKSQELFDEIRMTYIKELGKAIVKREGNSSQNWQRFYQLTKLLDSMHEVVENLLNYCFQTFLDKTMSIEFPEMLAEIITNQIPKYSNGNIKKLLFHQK
Description: Human Glucocorticoid Receptor (GR) Assay The assay is based on a commercial kit from Panvera/Invitrogen (Part number P2893). The assay technology is fluorescence polarization. The kit utilises recombinant human GR (Panvera, Part number P2812), a Fluoromone™ labelled tracer (GS Red, Panvera, Part number P2894) and a Stabilizing Peptide 10× (Panvera, Part number P2815). The GR and Stabilizing Peptide reagents are stored at −70° C. while the GS Red is stored at −20° C. Also included in the kit are 1M DTT (Panvera, Part number P2325, stored at −20° C.) and GR Screening buffer 10× (Panvera, Part number P2814, stored at −70° C. initially but once thawed stored at room temperature). Avoid repeated freeze/thaws for all reagents. The GR Screening buffer 10× comprises 100 mM potassium phosphate, 200 mM sodium molybdate, 1 mM EDTA and 20% DMSO. Test compounds (1 μL) and controls (1 μL) in 100% DMSO were added to black polystyrene 384-well plates (Greiner low volume black flat-bottom, part number 784076). 0% control was 100% DMSO and 100% control was 10 μM Dexamethasone. Background solution (8 μL; assay buffer 10×, Stabilizing Peptide, DTT and ice cold MQ water) was added to the background wells. GS Red solution (7 μL; assay buffer 10×, Stabilizing Peptide, DTT, GS Red and ice cold water) was added to all wells except background wells. GR solution (7 μL; assay buffer 10×, Stabilizing Peptide, DTT, GR and ice cold water) was added to all wells. The plate was sealed and incubated in a dark at room temperature for 2 hours. The plate was read in an Analyst plate reader (LJL Biosystems/Molecular Devices Corporation) or other similar plate reader capable of recording fluorescence polarization (excitation wavelength 530 nm, emission wavelength 590 nm and a dichroic mirror at 561 nm).

In order of falling IC50:
1. C[C@]12C=CC(=O)C=C1CC[C@@H]1[C@@H]2[C@@H](O)C[C@@]2(C)[C@H]1C[C@H]1OC(c3ccc(C(F)(F)F)cc3)O[C@]12C(=O)SCC#N (stereo partly drawn) [Example 39, S-(Cyanomethyl)(4aR,4bS,5S,6aS,6bS,9aR,10aS,10bS)-5-hydroxy-4a,6a-dimethyl-2-oxo-8-[4-(trifluoromethyl)phenyl]-2,4a,4b,5,6,6a,9a,10,10a,10,11,12-dodecahydro-6bH-naphtho[2′,1′:4,5]indeno[1,2-d][1,3]dioxole-6b-carbothioate]  2.8 nM
2. Cc1ccc(C2O[C@@H]3C[C@H]4[C@@H]5CCC6=CC(=O)C=C[C@]6(C)[C@H]5[C@@H](O)C[C@]4(C)[C@]3(C(=O)SCC#N)O2)c(C)c1 (stereo partly drawn) [Example 36, S-(Cyanomethyl)(4aR,4bS,5S,6aS,6bS,9aR,10aS,10bS)-8-(2,4-dimethylphenyl)-5-hydroxy-4a,6a-dimethyl-2-oxo-2,4a,4b,5,6,6a,9a,10,10a,10,11,12-dodecahydro-6bH-naphtho[2′,1′:4,5]indeno[1,2-d][1,3]dioxole-6b-carbothioate]  2.7 nM
3. CSC(=O)[C@@]12OC(c3ccc(C(F)(F)F)cc3)O[C@@H]1C[C@H]1[C@@H]3CCC4=CC(=O)C=C[C@]4(C)[C@H]3[C@@H](O)C[C@@]12C (stereo partly drawn) [Example 41, S-Methyl (4aR,4bS,5S,6aS,6bS,9aR,10aS,10bS)-5-hydroxy-4a,6a-dimethyl-2-oxo-8-[4-(trifluoromethyl)phenyl]-2,4a,4b,5,6,6a,9a,10,10a,10b,11,12-dodecahydro-6bH-naphtho[2′,1′:4,5]indeno[1,2-d][1,3]dioxole-6b-carbothioate]  2.2 nM
4. Cc1ccc(C2O[C@@H]3C[C@H]4[C@@H]5C[C@H](F)C6=CC(=O)C=C[C@]6(C)[C@@]5(F)[C@@H](O)C[C@]4(C)[C@]3(C(=O)SCF)O2)cc1 (stereo partly drawn) [Example 17, S-(Fluoromethyl)(4aS,4bR,5S,6aS,6bS,9aR,10aS,10bS,12S)-4b,12-difluoro-5-hydroxy-4a,6a-dimethyl-8-(4-methylphenyl)-2-oxo-2,4a,4b,5,6,6a,9a,10,10a,10b,11,12-dodecahydro-6bH-naphtho[2′,1′:4,5]indeno[1,2-d][1,3]dioxole-6b-carbothioate]  1.8 nM
5. C[C@]12C=CC(=O)C=C1[C@@H](F)C[C@H]1[C@@H]3C[C@H]4OC(c5ccc6ncccc6c5)O[C@@]4(C(=O)SCC#N)[C@@]3(C)C[C@H](O)[C@@]12F (stereo partly drawn) [Example 16, S-(Cyanomethyl)(4aS,4bR,5S,6aS,6bS,9aR,10aS,10bS,12S)-4b,12-difluoro-5-hydroxy-4a,6a-dimethyl-2-oxo-8-quinolin-6-yl-2,4a,4b,5,6,6a,9a,10,10a,10b,11,12-dodecahydro-6bH-naphtho[2′,1′:4,5]indeno[1,2-d][1,3]dioxole-6b-carbothioate]  1.5 nM
6. C[C@]12C=CC(=O)C=C1[C@@H](F)C[C@H]1[C@@H]3C[C@H]4OC(c5ccc(Cl)cc5)O[C@@]4(C(=O)SCF)[C@@]3(C)C[C@H](O)[C@@]12F (stereo partly drawn) [Example 29, S-(Fluoromethyl)(4aS,4bR,5S,6aS,6bS,9aR,10aS,10bS,12S)-8-(4-chlorophenyl)-4b,12-difluoro-5-hydroxy-4a,6a-dimethyl-2-oxo-2,4a,4b,5,6,6a,9a,10,10a,10b,11,12-dodecahydro-6bH-naphtho[2′,1′:4,5]indeno[1,2-d][1,3]dioxole-6b-carbothioate]  1.3 nM
7. Cc1ccc(C2O[C@@H]3C[C@H]4[C@@H]5C[C@H](F)C6=CC(=O)C=C[C@]6(C)[C@@]5(F)[C@@H](O)C[C@]4(C)[C@]3(C(=O)SCC#N)O2)cc1 (stereo partly drawn) [Example 24, S-(Cyanomethyl)(4aS,4bR,5S,6aS,6bS,9aR,10aS,10bS,12S)-4b,12-difluoro-5-hydroxy-4a,6a-dimethyl-8-(4-methylphenyl)-2-oxo-2,4a,4b,5,6,6a,9a,10,10a,10b,11,12-dodecahydro-6bH-naphtho[2′,1′:4,5]indeno[1,2-d][1,3]dioxole-6b-carbothioate]  1.2 nM
8. C[C@]12C=CC(=O)C=C1[C@@H](F)C[C@H]1[C@@H]3C[C@H]4OC(c5ccc(F)cc5)O[C@@]4(C(=O)SCC#N)[C@@]3(C)C[C@H](O)[C@@]12F (stereo partly drawn) [Example 26, S-(Cyanomethyl)(4aS,4bR,5S,6aS,6bS,9aR,10aS,10bS,12S)-4b,12-difluoro-8-(4-fluorophenyl)-5-hydroxy-4a,6a-dimethyl-2-oxo-2,4a,4b,5,6,6a,9a,10,10a,10b,11,12-dodecahydro-6bH-naphtho[2′,1′:4,5]indeno[1,2-d][1,3]dioxole-6b-carbothioate]  1.1 nM
9. C[C@]12C=CC(=O)C=C1[C@@H](F)C[C@H]1[C@@H]3C[C@H]4OC(c5ccccc5)O[C@@]4(C(=O)SCF)[C@@]3(C)C[C@H](O)[C@@]12F (stereo partly drawn) [Example 30, S-(Fluoromethyl)(4aS,4bR,5S,6aS,6bS,9aR,10aS,10bS,12S)-4b,12-difluoro-5-hydroxy-4a,6a-dimethyl-2-oxo-8-phenyl-2,4a,4b,5,6,6a,9a,10,10a,10b,11,12-dodecahydro-6bH-naphtho[2′,1′:4,5]indeno[1,2-d][1,3]dioxole-6b-carbothioate]  1.1 nM
10. C[C@]12C=CC(=O)C=C1[C@@H](F)C[C@H]1[C@@H]3C[C@H]4OC(c5cccc6c5OCC6)O[C@@]4(C(=O)SCF)[C@@]3(C)C[C@H](O)[C@@]12F (stereo partly drawn) [Example 32, S-(Fluoromethyl)(4aS,4bR,5S,6aS,6bS,9aR,10aS,10bS,12S)-8-(2,3-dihydro-1-benzofuran-7-yl)-4b,12-difluoro-5-hydroxy-4a,6a-dimethyl-2-oxo-2,4a,4b,5,6,6a,9a,10,10a,10b,11,12-dodecahydro-6bH-naphtho[2′,1′:4,5]indeno[1,2-d][1,3]dioxole-6b-carbothioate]  1 nM
11. C[C@]12C=CC(=O)C=C1[C@@H](F)C[C@H]1[C@@H]3C[C@H]4O[C@@H](c5ccccc5)O[C@@]4(C(=O)SCC#N)[C@@]3(C)C[C@H](O)[C@@]12F [Example 31, S-(Cyanomethyl)(4aS,4bR,5S,6aS,6bS,9aR,10aS,10bS,12S)-4b,12-difluoro-5-hydroxy-4a,6a-dimethyl-2-oxo-8-phenyl-2,4a,4b,5,6,6a,9a,10,10a,10b,11,12-dodecahydro-6bH-naphtho[2′,1′:4,5]indeno[1,2-d][1,3]dioxole-6b-carbothioate]  0.98 nM
12. CSC(=O)[C@@]12O[C@@H](c3cccs3)O[C@@H]1C[C@H]1[C@@H]3C[C@H](F)C4=CC(=O)C=C[C@]4(C)[C@@]3(F)[C@@H](O)C[C@@]12C [Example 4, S-Methyl (4aS,4bR,5S,6aS,6bS,8S,9aR,10aS,10bS,12S)-4b,12-difluoro-5-hydroxy-4a,6a-dimethyl-2-oxo-8-(2-thienyl)-2,4a,4b,5,6,6a,9a,10,10a,10,11,12-dodecahydro-6bH-naphtho[2′,1′:4,5]indeno[1,2-d][1,3]dioxole-6b-carbothioate]  0.96 nM
13. Cc1ccccc1C1O[C@@H]2C[C@H]3[C@@H]4C[C@H](F)C5=CC(=O)C=C[C@]5(C)[C@@]4(F)[C@@H](O)C[C@]3(C)[C@]2(C(=O)SCF)O1 (stereo partly drawn) [Example 22, S-(Fluoromethyl)(4aS,4bR,5S,6aS,6bS,9aR,10aS,10bS,12S)-4b,12-difluoro-5-hydroxy-4a,6a-dimethyl-8-(2-methylphenyl)-2-oxo-2,4a,4b,5,6,6a,9a,10,10a,10b,11,12-dodecahydro-6bH-naphtho[2′,1′:4,5]indeno[1,2-d][1,3]dioxole-6b-carbothioate]  0.85 nM
14. C[C@]12C=CC(=O)C=C1CC[C@@H]1[C@@H]2[C@@H](O)C[C@@]2(C)[C@H]1C[C@H]1OC(c3ccccc3F)O[C@]12C(=O)SCF (stereo partly drawn) [Example 43, S-(Fluoromethyl)(4aR,4bS,5S,6aS,6bS,9aR,10aS,10bS)-8-(2-fluorophenyl)-5-hydroxy-4a,6a-dimethyl-2-oxo-2,4a,4b,5,6,6a,9a,10,10a,10,11,12-dodecahydro-6bH-naphtho[2′,1′:4,5]indeno[1,2-d][1,3]dioxole-6b-carbothioate]  0.81 nM
